# From article PMC5004293, “Characterization of FRM-36143 as a new γ-secretase modulator for the potential treatment of familial Alzheimer’s disease” (Alzheimer's Research & Therapy, 2016)
# Read-outs that look alike come from different tables or passages of the source.
# How the values were obtained:
# γ-secretase [1] = test: Aβ peptide ELISA in H4 cells stably expressing wild-type human APP751; type: cell-based
# Experimental: (§1) Human neuroglioma H4 cells stably expressing wild-type human APP751 were used for this assay. Briefly, cells were plated at 15,000 cells/well in 96-well plates and left to settle for 6 h (37 °C; 5 % CO2). Cells were then washed three times with Pro293™ chemically defined medium (Lonza, Walkersville, MD, USA) followed by the addition of the compound (0.3 % final DMSO). Plates were incubated overnight, and the supernatant was removed for quantification of Aβ peptides by sandwich enzyme-linked immunosorbent assay (ELISA) (see below). Cytotoxicity was evaluated using Cell-Titer 96 W AQueous One Solution Cell Proliferation Assay (MTS Assay, Promega) according to the manufacturer’s protocol.
# Aβ peptide levels were quantified by sandwich ELISA using anti-Aβ38, anti-Aβ40, anti-Aβ42, (BioLegend, Dedham, MA, USA) or anti-Aβ37 for the capture and 4G8-horseradish peroxidase (HRP; BioLegend) for detection. When measuring Aβ37 and Aβ38, 4G8-HRP was added to the sample for overnight incubation, whereas it was added after the overnight incubation for 1 h for Aβ40 and Aβ42 measurements.
# For cell-based assays, freshly collected samples of cultured cell supernatant were added to the plates and incubated at 4 °C for about 24 h. Detection was performed using SureBlue 3,3’,5,5’-tetramethylbenzidine (TMB) peroxidase substrate (KPL, Inc., Gaithersburg, MD, USA) and the plates read on a SpectraMax M5e microplate reader (Molecular Devices, Inc., Sunnyvale, CA, USA). GSM-treated samples were normalized to samples treated with DMSO alone (100 %) and 5 μM GSI, DAPT (0 %; Sigma-Aldrich). EC50 values were calculated from values reported as percentage of DMSO using nonlinear regression, based on a sigmoidal dose–response (variable slope) model.
# γ-secretase [2] = test: Acute oral treatment of rats, brain and CSF Aβ peptides; type: in vivo, rat
# Experimental: For in vivo assessment of compound efficacy, brain tissue and cerebrospinal fluid (CSF) were collected, snap frozen in liquid nitrogen, and stored at −80 °C. Brain hemispheres were homogenized in 0.6 % diethylamine (DEA) in 50 mM NaCl containing protease inhibitor cocktail (cOmplete mini, EDTA-free, Roche) using sonication (Branson) at 23 % amplitude for 30 s. Homogenates were spun at 227,000 × g for 25 min at 4 °C. Supernatants were diluted fivefold in PBS-T (0.05 % Tween-20) containing 0.67 % BSA and added to the ELISA plate. For CSF, samples were diluted threefold in the PBS-T/BSA buffer. Detection was performed using the SuperSignal™ ELISA Femto substrate (Thermo Fisher), and luminescence was read on an EnVision plate reader (Perkin Elmer).
# (§2) Mice and rats were maintained on 12/12 h light/dark cycle with food available ad libitum. Drug treatment was prepared in a vehicle of 1 % carboxymethylcellulose (CMC):Tween80 (99.5:0.5). Twelve-week-old wild-type male mice (129S6, Taconic Biosciences, Hudson, NY, USA) or rats (Wistar, Charles River Laboratories) were administered compound p.o. without prior fasting and euthanized by CO2 asphyxiation at specified times post-dosing. After extraction of the brain, the olfactory bulb and hindbrain were removed and the cerebral hemispheres separated (mice) or cut in 4 pieces (rats). The cerebellum was removed for bioanalysis of the compound. CSF was collected from the cisterna magna and blood from a cardiac puncture.
# [3] = Compound exposure in rats (LC-MS/MS, brain tissue binding); type: in vivo; details: Wistar, oral, rat, 30 mg/kg, 6 h post-dose
# Experimental: as §2
# Cerebellums were homogenized in a Mini-BeadBeater (Biospec Products, Inc., Bartlesville, OK, USA). Brain samples, plasma, and CSF were prepared for LC-MS/MS by precipitating proteins with acetonitrile and vacuum filtration in the presence of an internal standard. Standards were prepared in the corresponding matrix. FRM-36143 was resolved by HPLC (Shimadzu) using a reverse-phase C18 Kinetex column (30X2.1 mM; Phenomenex, Torrance, CA, USA). […]
# The unbound fraction in brain homogenate (fu,b) was determined in triplicate in the Rapid Equilibrium Dialysis device (8000 Da molecular weight cut-off membrane, Thermo Scientific/Pierce Biotechnology, Rockford, IL, USA). […]
# γ-secretase [4] = test: Immunoprecipitation / MALDI-TOF mass spectrometry of Aβ peptides in H4 cell media; type: cell-based, human; details: 300 nM, overnight
# Experimental: as §1
# Immunoprecipitation of carboxyl-terminally truncated Aβ peptides from 4 mL of H4 cell media was conducted using the anti-Aβ antibody 6E10 (epitope 3–8 of Aβ; Covance, Inc., Dedham, MA, USA) or 4G8 (epitope 18–22 of Aβ; Covance, Inc., Dedham, MA, USA) coupled to magnetic beads as described elsewhere. After elution of the immunoprecipitated Aβ peptides, the detection was performed on an UltraFlextreme MALDI-TOF/TOF instrument (Bruker Daltonics, Bremen, Germany).
# [5] = rats, 30 mg/kg p.o., 6 h post-dose
structure (smiles),measurement,setting,value
"COc1nc(C2=NOC[C@H](c3cc4ccccc4o3)N2)ccc1-n1cnc(C)c1 [FRM-36143, (R)-5-(benzofuran-2-yl)-3-(6-methoxy-5-(4-methyl-1H-imidazol-1-yl)pyridin-2-yl)-5,6-dihydro-4H-1,2,4-oxadiazine]",EC50,"γ-secretase [1]; H4 APP751 cells, overnight, ELISA, read-out: EC50 for Aβ37",186 nM
same,EC50,"γ-secretase [1]; H4 APP751 cells, overnight, ELISA, read-out: EC50 for Aβ38",38 nM
same,EC50,"γ-secretase [1]; H4 APP751 cells, overnight, ELISA, read-out: EC50 for Aβ40",167 nM
same,EC50,"γ-secretase [1]; H4 cells expressing human WT APP751, overnight treatment, ELISA of conditioned media, read-out: EC50 for Aβ42",35 nM
same,EC90,"γ-secretase [1]; assay not stated, compared with unbound brain concentration",383 nM
same,EC50,"γ-secretase [1]; range over H4 cells and primary neurons, read-out: EC50 to reduce Aβ42 levels in cells",35 to 53 nM
same,Aβ42 reduced to % of the baseline in rat cerebrospinal fluid,γ-secretase [2]; rat CSF,58%
same,Brain Aβ37 increase vs vehicle,γ-secretase [2]; [5],2.5 fold
same,Brain Aβ42 reduction vs vehicle,γ-secretase [2]; [5],30%
same,CSF Aβ42 reduction vs vehicle,γ-secretase [2]; [5],58%
same,CSF Aβ37 increase vs vehicle,"γ-secretase [2]; rats, 30 mg/kg p.o., 6 h post-dose, vehicle values close to detection limit",20 fold
same,concentration at 6 h,"[3]; CSF, read-out: CSF concentration",122 nM
same,concentration at 6 h,"[3]; brain (unbound), calculated using brain tissue binding, read-out: Unbound brain exposure",156 nM
same,Percentage change (vs. DMSO) Aβ1–33,γ-secretase [4],161%
same,Percentage change (vs. DMSO) Aβ1–34,γ-secretase [4],125%
same,Percentage change (vs. DMSO) Aβ1–37,γ-secretase [4],407%
same,Percentage change (vs. DMSO) Aβ1–38,γ-secretase [4],126%
same,Percentage change (vs. DMSO) Aβ1–39,γ-secretase [4],46%
same,Percentage change (vs. DMSO) Aβ1–40,γ-secretase [4],26%
same,Percentage change (vs. DMSO) Aβ1–42,γ-secretase [4],21%
same,Percentage change (vs. DMSO) Aβ5–38,γ-secretase [4],150%
same,Percentage change (vs. DMSO) Aβ5–40,γ-secretase [4],40%
same,Normalized AUC Aβ1–33,γ-secretase [4]; semi-quantitative,2.9
same,Normalized AUC Aβ1–34,γ-secretase [4]; semi-quantitative,0.5
same,Normalized AUC Aβ1–37,γ-secretase [4]; semi-quantitative,23.6
same,Normalized AUC Aβ1–38,γ-secretase [4]; semi-quantitative,15
same,Normalized AUC Aβ1–39,γ-secretase [4]; semi-quantitative,1.6
same,Normalized AUC Aβ1–40,γ-secretase [4]; semi-quantitative,10
same,Normalized AUC Aβ1–42,γ-secretase [4]; semi-quantitative,0.4
same,Normalized AUC Aβ5–37,γ-secretase [4]; semi-quantitative,1.9
same,Normalized AUC Aβ5–38,γ-secretase [4]; semi-quantitative,1.5
same,Normalized AUC Aβ5–40,γ-secretase [4]; semi-quantitative,1.2
